Assay results as given in ChEMBL document CHEMBL5584341, “Discovery of Potent, Specific, and Orally Available NLRP3 Inflammasome Inhibitors Based on Pyridazine Scaffolds for the Treatment of Septic Shock and Peritonitis” (J Med Chem, 2024).
The source made the active and inactive calls. No cut-off for these calls is given here.

Assays:
[1] = MRT(0 to t) in BALB/c mouse at 5 mg/kg, po measured upto 24 hrs by LC-MS/MS analysis; format: ADME, organism-based; details: in vivo
[2] = biological target: NACHT, LRR and PYD domains-containing protein 3 (Mus musculus) (UniProt Q8R4B8); experiment: Inhibition of NLRP3 inflammasome activation in LPS/nigericin stimulated mouse BMDMs assessed as effect on pro-caspase-1 expression pretreated with LPS for 3 hrs followed by compound addition for 40 mins prior to nigericin stimulation for 40 mins by Western blotting analysis; format: cell-based; details: BMDM, time 80.0 min
[3] = biological target: NACHT, LRR and PYD domains-containing protein 3 (Mus musculus) (UniProt Q8R4B8); experiment: Inhibition of NLRP3 inflammasome activation in LPS/nigericin stimulated mouse BMDMs assessed as effect on ASC expression pretreated with LPS for 3 hrs followed by compound addition for 40 mins prior to nigericin stimulation for 40 mins by Western blotting analysis; format: cell-based; details: BMDM, time 80.0 min
[4] = test system: Mus musculus; experiment: Antiinflammatory activity against LPS induced septic shock in BALB/c mouse assessed as reduction in TNFalpha level at 25 mg/kg, ip pretreated for 1 hr followed by LPS stimulation and measured after 3 hrs by ELISA; format: functional, organism-based; details: time 4.0 hrs
[5] = biological target: T1, Cytochrome P450 1A2 (Homo sapiens, UniProt P05177); experiment: Inhibition of human CYP1A2 upto 10 uM relative to control; format: ADME
T1 sequence (P05177 whole entry): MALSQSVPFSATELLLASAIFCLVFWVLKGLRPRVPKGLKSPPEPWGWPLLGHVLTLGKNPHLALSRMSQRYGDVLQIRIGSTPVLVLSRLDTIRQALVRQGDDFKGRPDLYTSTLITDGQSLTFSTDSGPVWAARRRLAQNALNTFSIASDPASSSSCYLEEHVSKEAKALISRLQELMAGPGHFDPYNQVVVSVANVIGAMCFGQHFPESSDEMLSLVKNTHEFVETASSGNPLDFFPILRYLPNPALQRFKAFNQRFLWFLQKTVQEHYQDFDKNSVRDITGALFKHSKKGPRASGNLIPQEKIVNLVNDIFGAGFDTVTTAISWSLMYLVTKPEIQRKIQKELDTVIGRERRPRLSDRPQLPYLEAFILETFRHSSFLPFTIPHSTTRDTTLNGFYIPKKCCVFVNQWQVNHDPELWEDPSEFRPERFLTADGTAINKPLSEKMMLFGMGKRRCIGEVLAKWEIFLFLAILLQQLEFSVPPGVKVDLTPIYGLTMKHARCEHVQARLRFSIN

[6] = biological target: NACHT, LRR and PYD domains-containing protein 3 (Mus musculus) (UniProt Q8R4B8); experiment: Inhibition of NLRP3 inflammasome activation in mouse BMDMs assessed as effect on pro-IL-1beta expression at 2 to 31.25 nM pretreated with LPS for 3 hrs followed by compound addition for 40 mins; format: cell-based; details: BMDM, dose 2-31.25 nM
[7] = biological target: Cytochrome P450 2C19 (Homo sapiens, UniProt P33261); experiment: Inhibition of human CYP2C19 upto 10 uM relative to control; format: ADME
[8] = biological target: NACHT, LRR and PYD domains-containing protein 3 (Mus musculus) (UniProt Q8R4B8); experiment: Inhibition of NLRP3 inflammasome activation in LPS stimulated mouse BMDMs assessed as reduction in IL-1beta release at 2 to 31.25 nM pretreated with LPS for 3 hrs followed by compound addition for 40 mins prior to alum stimulation for 6 hrs by ELISA; format: cell-based; details: BMDM, dose 2-31.25 nM, time 400.0 min
[9] = test system: THP-1; experiment: Inhibition of nigericin induced ASC oligomerization in PMA differentiated human THP-1 cells at 5 to 80 nM pretreated with LPS for 3 hrs followed by compound addition for 40 mins prior to nigericin stimulation for 40 mins by gel electrophoresis analysis; format: functional, cell-based; details: dose 5-80 nM, time 80.0 min
[10] = biological target: NACHT, LRR and PYD domains-containing protein 3 (Mus musculus) (UniProt Q8R4B8); experiment: Inhibition of NLRP3 inflammasome activation in mouse BMDMs assessed as effect on TNF-alpha production at 2 to 31.25 nM pretreated with compound for 40 mins followed by LPS/ATP stimulation; format: cell-based; details: BMDM, dose 2-31.25 nM
[11] = AUC(0 to t) in BALB/c mouse at 5 mg/kg, iv measured upto 24 hrs by LC-MS/MS analysis; format: ADME, organism-based; details: in vivo
[12] = Cmax in BALB/c mouse at 5 mg/kg, po measured upto 24 hrs by LC-MS/MS analysis; format: ADME, organism-based; details: in vivo
[13] = biological target: NLR family CARD domain-containing protein 4 (Mus musculus) (UniProt Q3UP24); experiment: Inhibition of flagellin stimulated NLRC4 inflammasome activation in mouse BMDMs assessed as reduction in IL-1beta secretion at 0.1 to 10 uM pretreated with LPS for 3 hrs followed by compound addition for 40 mins prior to flagellin stimulation for 6 hrs by ELISA; format: cell-based; details: BMDM, dose 0.1-10 µM, time 400.0 min
[14] = test system: Mus musculus; experiment: Antiinflammatory activity against LPS induced septic shock in BALB/c mouse assessed as reduction in serum IL-1beta level at 25 mg/kg, ip pretreated for 1 hr followed by LPS stimulation and measured after 3 hrs by ELISA; format: functional, organism-based; details: time 4.0 hrs
[15] = AUC(0 to t) in BALB/c mouse at 5 mg/kg, po measured upto 24 hrs by LC-MS/MS analysis; format: ADME, organism-based; details: in vivo
[16] = biological target: NACHT, LRR and PYD domains-containing protein 3 (Mus musculus, UniProt Q8R4B8); experiment: Inhibition of NLRP3 inflammasome activation in LPS/nigericin stimulated mouse BMDMs assessed as reduction in IL-1beta release pretreated with LPS for 3 hrs followed by compound addition for 40 mins prior to nigericin stimulation for 40 mins by ELISA; format: cell-based, BMDM
[17] = test system: THP-1; experiment: Inhibition of nigericin induced ASC specks formation in PMA differentiated human THP-1 cells at 5 to 80 nM pretreated with LPS for 3 hrs followed by compound addition for 40 mins prior to nigericin stimulation for 40 mins by Western blotting analysis; format: functional, cell-based; details: dose 5-80 nM, time 80.0 min
[18] = MRT(0 to t) in BALB/c mouse at 5 mg/kg, iv measured upto 24 hrs by LC-MS/MS analysis; format: ADME, organism-based; details: in vivo
[19] = biological target: NACHT, LRR and PYD domains-containing protein 3 (Mus musculus) (UniProt Q8R4B8); experiment: Inhibition of NLRP3 inflammasome activation in LPS/nigericin stimulated mouse BMDMs assessed as effect on pro-IL-1beta expression pretreated with LPS for 3 hrs followed by compound addition for 40 mins prior to nigericin stimulation for 40 mins by Western blotting analysis; format: cell-based; details: BMDM, time 80.0 min
[20] = test system: HepG2; experiment: Cytotoxicity against human HepG2 cells at 5 to 20 uM incubated for 72 hrs by MTT assay; format: toxicity, cell-based; details: hepg2, 72 h, dose 5-20 µM
[21] = biological target: NACHT, LRR and PYD domains-containing protein 3 (Mus musculus) (UniProt Q8R4B8); experiment: Inhibition of NLRP3 inflammasome activation in mouse BMDMs assessed as effect on NLRP3 expression at 2 to 31.25 nM pretreated with compound for 40 mins followed by LPS/nigericin stimulation; format: cell-based; details: BMDM, dose 2-31.25 nM
[22] = test system: Mus musculus; experiment: Antiinflammatory activity against LPS induced septic shock in BALB/c mouse assessed as increase in survival rate at 25 mg/kg, ip pretreated for 1 hr followed by LPS stimulation and measured after 72 hrs; format: functional; details: time 73 hrs
[23] = test system: LX-2; experiment: Cytotoxicity against human LX-2 cells at 5 uM incubated for 72 hrs by MTT assay; format: toxicity, cell-based; details: lx-2, 72 h
[24] = Cmax in BALB/c mouse at 5 mg/kg, iv measured upto 24 hrs by LC-MS/MS analysis; format: ADME, organism-based; details: in vivo

Sequence of NACHT, LRR and PYD domains-containing protein 3 (Mus musculus) (Q8R4B8 whole entry, the tested form may be a part): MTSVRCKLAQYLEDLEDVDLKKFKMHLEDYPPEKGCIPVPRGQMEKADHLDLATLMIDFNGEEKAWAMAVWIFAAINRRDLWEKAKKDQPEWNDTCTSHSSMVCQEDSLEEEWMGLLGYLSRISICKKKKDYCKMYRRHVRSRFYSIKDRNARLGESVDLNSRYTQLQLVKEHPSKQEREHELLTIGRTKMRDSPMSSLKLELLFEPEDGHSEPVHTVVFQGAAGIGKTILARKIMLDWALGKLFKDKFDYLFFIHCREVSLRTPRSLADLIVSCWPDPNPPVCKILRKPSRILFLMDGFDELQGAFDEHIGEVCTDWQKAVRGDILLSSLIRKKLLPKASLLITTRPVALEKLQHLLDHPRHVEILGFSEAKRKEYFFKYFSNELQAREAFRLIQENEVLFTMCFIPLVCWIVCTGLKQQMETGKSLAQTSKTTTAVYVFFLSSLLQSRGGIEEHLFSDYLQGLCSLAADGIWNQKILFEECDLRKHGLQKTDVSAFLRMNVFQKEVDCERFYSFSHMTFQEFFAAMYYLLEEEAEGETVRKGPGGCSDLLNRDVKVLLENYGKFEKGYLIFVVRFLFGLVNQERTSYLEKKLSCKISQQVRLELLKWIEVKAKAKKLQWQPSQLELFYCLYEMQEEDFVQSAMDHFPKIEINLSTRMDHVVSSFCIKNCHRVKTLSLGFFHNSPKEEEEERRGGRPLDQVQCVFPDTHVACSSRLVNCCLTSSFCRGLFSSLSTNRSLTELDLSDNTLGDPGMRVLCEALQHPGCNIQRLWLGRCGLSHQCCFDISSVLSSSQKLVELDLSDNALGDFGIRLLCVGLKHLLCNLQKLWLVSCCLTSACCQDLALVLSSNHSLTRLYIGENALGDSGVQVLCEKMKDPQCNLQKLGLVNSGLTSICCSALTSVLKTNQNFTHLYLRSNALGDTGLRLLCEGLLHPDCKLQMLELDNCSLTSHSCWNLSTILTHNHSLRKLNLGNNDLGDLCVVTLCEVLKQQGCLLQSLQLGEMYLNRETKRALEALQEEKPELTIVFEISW
Sequence of NACHT, LRR and PYD domains-containing protein 3 (Q8R4B8 whole entry, the tested form may be a part): as above
Sequence of NLR family CARD domain-containing protein 4 (Mus musculus) (Q3UP24 whole entry, the tested form may be a part): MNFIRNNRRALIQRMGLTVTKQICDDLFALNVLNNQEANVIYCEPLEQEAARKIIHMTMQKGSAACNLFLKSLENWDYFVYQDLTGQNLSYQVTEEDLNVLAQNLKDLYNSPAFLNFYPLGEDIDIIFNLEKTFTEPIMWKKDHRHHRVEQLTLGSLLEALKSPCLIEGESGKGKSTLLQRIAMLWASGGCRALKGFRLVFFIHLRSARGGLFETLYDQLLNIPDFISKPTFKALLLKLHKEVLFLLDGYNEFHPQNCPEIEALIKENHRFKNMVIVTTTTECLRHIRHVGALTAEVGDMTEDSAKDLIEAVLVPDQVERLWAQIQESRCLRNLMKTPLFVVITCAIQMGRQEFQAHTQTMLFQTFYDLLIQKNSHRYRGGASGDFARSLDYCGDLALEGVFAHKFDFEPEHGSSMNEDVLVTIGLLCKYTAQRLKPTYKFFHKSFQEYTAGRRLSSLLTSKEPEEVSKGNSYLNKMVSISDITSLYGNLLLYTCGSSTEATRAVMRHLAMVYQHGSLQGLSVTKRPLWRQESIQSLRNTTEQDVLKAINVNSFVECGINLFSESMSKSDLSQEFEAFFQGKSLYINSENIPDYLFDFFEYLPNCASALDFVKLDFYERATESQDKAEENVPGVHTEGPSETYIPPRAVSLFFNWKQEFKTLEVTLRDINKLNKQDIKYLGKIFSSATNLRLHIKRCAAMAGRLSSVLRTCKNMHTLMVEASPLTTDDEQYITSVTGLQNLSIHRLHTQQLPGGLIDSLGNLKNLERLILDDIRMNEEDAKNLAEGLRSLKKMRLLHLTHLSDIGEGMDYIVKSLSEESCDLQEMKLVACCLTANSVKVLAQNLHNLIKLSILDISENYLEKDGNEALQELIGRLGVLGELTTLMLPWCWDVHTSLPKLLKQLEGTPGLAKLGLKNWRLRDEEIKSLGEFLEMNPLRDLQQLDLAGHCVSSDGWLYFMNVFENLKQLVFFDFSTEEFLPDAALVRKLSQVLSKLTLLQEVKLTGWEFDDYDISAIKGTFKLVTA
Sequence of Cytochrome P450 2C19 (P33261 whole entry, the tested form may be a part): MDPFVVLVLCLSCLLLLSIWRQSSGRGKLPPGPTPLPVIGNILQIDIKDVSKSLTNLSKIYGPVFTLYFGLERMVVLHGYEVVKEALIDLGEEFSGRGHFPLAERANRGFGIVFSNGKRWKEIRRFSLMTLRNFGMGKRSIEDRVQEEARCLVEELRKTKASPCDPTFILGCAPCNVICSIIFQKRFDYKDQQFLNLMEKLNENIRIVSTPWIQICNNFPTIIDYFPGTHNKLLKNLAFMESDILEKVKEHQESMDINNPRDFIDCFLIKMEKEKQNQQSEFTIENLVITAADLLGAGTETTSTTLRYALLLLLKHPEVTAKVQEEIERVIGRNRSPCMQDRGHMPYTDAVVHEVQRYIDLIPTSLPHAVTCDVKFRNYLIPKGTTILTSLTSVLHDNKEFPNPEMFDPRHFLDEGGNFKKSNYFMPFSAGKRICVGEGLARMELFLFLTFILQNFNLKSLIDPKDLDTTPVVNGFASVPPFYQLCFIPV

OCCN1CCC[C@@H](Nc2nnc(-c3ccc4occc4c3O)c3c2C2CCC3CC2)C1
MRT last at 24 h [1]: 6.07 h | inhibition [2]: inactive | inhibition [3]: inactive | Activity [4]: Active | inhibition (INH) [5]: Not Active | inhibition [6]: inactive | inhibition (INH) [7]: Not Active | inhibition [8]: Active | inhibition [9]: Active | inhibition [10]: inactive | AUC(0-t) at 24 h [11]: 9520 ng·h/mL | Cmax [12]: 746 ng/mL | inhibition [13]: inactive | Activity [14]: Active | AUC(0-t) at 24 h [15]: 5940 ng·h/mL | IC50 [16]: 15.3 nM | inhibition [17]: Active | MRT last at 24 h [18]: 4.1 h | inhibition [19]: inactive | Activity [20]: Non-Toxic | inhibition [21]: inactive | Activity [22]: 82% | Activity [23]: Non-Toxic | Cmax [24]: 3770 ng/mL
